Data reported in article PMC6100008, “Fingerprint-Based Machine Learning Approach to Identify Potent and Selective 5-HT2BR Ligands” (Molecules : A Journal of Synthetic Chemistry and Natural …, 2018).
Where two headings read alike, the source gives them in different places. Values belong to the compound of their own block, whether it stands above or below them.

Tests used:
5-HT2B [1] = molecular target: 5-HT2B; set-up: method as in earlier work; details: Figure 1; ref 21 (1), ChEMBL (2, 3), ref 24 (5), ref 26 (7); cited from earlier work
5-HT1B = details: Figure 1; ref 21 (compound 1), ChEMBL (compounds 2, 3); cited from earlier work
5-HT2B [2] = details: cited from earlier work
5-HT2B [3] = tested on: 5-HT2B; set-up: method as in PMID 8709108; details: Figure 1; cited from earlier work
[4] = molecular target: T1, human serotonin 5-HT2A receptor (Homo sapiens, UniProt P28223); assay: Competition binding in human 5-HT2A receptor ([3H]-Ketanserin, HEK293 membranes); details: 5-HT panel screening; mean ± SD
T1 construct: expressed in transfected cells
T1 sequence (P28223 whole entry): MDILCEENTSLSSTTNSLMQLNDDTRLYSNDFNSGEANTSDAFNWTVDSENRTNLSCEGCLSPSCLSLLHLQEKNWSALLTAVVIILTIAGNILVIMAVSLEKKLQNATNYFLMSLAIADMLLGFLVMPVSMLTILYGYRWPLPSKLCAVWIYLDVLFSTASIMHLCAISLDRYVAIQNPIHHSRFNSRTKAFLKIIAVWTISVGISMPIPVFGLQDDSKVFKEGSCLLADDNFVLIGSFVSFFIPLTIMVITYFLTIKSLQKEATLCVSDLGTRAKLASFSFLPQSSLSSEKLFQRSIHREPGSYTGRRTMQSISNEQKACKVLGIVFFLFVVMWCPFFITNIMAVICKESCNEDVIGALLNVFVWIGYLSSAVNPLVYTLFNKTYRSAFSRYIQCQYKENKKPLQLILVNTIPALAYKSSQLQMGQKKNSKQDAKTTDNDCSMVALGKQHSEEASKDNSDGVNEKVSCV

human 5-HT1B receptor = molecular target: T2, human 5-HT1B receptor (Homo sapiens, UniProt P28222); assay: Competition binding in human 5-HT1B receptor ([3H]-GR125743, Hela-5-HT1B membranes); details: for Ki: measured if inhibition at 10 µM exceeded 50%, mean ± SD of three assays; for inhibition at 10 µM: 10 µM compound, mean ± SD of three independent assays with duplicate measurements, read-out: 5-HT1B (%) percentage of inhibition
T2 construct: expressed in transfected cells; host or cells: HeLa (Hela-5-HT1B cell line, Lot A001/14-11-2011)
T2 sequence (P28222 whole entry): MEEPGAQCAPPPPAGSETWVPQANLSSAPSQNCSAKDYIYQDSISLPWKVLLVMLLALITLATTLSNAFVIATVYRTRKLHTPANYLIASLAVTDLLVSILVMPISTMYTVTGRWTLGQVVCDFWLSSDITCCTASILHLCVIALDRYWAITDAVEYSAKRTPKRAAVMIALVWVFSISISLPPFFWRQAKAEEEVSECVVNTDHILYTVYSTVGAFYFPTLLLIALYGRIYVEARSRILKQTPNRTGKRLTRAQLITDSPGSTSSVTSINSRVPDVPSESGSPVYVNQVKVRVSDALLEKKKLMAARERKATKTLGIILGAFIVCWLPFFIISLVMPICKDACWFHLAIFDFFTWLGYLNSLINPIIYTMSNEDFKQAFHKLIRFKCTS

human serotonin 5-HT1AR = molecular target: T3, human serotonin 5-HT1AR (Homo sapiens, UniProt P08908); assay: Competition binding in human 5-HT1A receptor ([3H]-8-OH-DPAT, HEK293 membranes); details: 5-HT panel screening; mean ± SD
T3 construct: expressed in transfected cells
T3 sequence (P08908 1-422): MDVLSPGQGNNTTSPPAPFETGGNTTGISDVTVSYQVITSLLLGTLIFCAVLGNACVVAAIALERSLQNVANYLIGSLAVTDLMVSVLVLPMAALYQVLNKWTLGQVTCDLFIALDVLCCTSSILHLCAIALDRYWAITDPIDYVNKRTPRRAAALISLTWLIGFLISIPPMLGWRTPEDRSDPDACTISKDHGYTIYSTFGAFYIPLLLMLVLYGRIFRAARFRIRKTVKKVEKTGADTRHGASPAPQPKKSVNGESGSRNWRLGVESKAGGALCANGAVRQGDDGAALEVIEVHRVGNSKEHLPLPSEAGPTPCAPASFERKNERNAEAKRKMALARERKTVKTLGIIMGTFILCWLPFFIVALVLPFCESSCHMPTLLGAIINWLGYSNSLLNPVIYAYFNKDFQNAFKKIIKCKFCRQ

human 5-HT2B receptor = human 5-HT2B receptor (Homo sapiens, UniProt P41595); assay: Competition binding in human 5-HT2B receptor ([3H]-LSD, CHO-5-HT2B membranes); details: for 5-HT2BR affinity range in words: conclusions; for inhibition at 10 µM: read-out: 5-HT2B (%) percentage of inhibition
Sequence of human 5-HT2B receptor (P41595 whole entry): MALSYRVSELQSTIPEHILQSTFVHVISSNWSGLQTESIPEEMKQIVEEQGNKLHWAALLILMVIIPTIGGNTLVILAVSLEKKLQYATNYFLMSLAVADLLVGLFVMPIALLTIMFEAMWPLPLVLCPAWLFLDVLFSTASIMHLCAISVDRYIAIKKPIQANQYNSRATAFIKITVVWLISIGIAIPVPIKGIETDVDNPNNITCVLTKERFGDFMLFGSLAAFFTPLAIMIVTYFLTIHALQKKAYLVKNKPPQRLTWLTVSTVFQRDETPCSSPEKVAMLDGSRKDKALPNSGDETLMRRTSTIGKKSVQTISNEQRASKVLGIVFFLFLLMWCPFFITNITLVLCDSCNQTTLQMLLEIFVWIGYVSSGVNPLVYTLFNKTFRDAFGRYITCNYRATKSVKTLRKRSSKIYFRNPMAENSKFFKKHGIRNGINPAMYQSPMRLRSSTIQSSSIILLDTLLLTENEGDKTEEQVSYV

[5] = molecular target: T4, human serotonin 5-HT7b receptor (Homo sapiens, UniProt P34969); assay: Competition binding in human 5-HT7 receptor ([3H]-5-CT, HEK293 membranes); details: 5-HT panel screening; mean ± SD
T4 construct: expressed in transfected cells
T4 sequence (P34969 1-432): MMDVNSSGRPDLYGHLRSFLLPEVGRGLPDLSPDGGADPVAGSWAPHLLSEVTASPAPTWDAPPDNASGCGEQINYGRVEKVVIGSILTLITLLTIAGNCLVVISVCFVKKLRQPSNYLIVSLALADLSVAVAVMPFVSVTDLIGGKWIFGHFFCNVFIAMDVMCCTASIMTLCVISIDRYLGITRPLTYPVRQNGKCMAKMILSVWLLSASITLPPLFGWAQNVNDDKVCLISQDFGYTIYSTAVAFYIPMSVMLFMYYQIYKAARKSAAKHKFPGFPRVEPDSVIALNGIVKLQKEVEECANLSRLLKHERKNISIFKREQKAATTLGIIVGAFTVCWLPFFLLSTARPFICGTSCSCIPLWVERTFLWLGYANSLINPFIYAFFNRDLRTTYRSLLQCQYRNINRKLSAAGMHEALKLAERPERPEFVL

[6] = molecular target: T5, human serotonin 5-HT6 receptor (Homo sapiens, UniProt P50406); assay: Competition binding in human 5-HT6 receptor ([3H]-LSD, HEK293 membranes); details: 5-HT panel screening; mean ± SD
T5 construct: expressed in transfected cells
T5 sequence (P50406 whole entry): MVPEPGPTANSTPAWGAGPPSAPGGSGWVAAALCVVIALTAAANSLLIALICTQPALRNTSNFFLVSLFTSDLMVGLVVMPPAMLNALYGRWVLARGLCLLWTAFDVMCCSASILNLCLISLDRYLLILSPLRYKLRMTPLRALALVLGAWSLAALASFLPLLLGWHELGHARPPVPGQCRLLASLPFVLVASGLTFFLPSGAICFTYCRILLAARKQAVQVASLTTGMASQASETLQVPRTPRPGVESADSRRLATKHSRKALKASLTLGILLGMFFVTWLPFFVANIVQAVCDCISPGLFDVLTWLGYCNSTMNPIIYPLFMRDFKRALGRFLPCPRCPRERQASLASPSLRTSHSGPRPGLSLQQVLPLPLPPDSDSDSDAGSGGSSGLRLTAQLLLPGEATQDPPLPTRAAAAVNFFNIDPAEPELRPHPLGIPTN

SMILES: CCOC(=O)c1cccc(NC2=NC(N)=NC3(CCCCC3)N2)c1 [Compound 1]
pKi (5-HT2B) (5-HT2B [1]): 8.14
pKi (5-HT1B) (5-HT1B): > 5

SMILES: COc1cc(N)c(Cl)cc1C(=O)NC1CCN(CCCOc2ccc(F)cc2)CC1OC (centres unmarked) [Compound 2]
pKi (5-HT1B) (5-HT1B): > 5.3

SMILES: CCCCN1CCC(COC(=O)c2cc(F)c(N)c3c2OCCO3)CC1 [Compound 3]
pKi (5-HT2B) (5-HT2B [1]): 6.78
pKi (5-HT1B) (5-HT1B): > 5

SMILES: CC(C)c1cc(-c2ccc(F)c3ccccc23)nc(N)n1 [Compound 4, RS-127445]
IC50 (5-HT2B [2]; Figure 1, read-out: IC50 (5-HT2B)): 0.7 nM

SMILES: Cc1cc([N+](=O)[O-])c(N2CCN(Cc3ccccc3)CC2)cc1N [Compound 5, EGIS-7625]
pKi (5-HT2B) (5-HT2B [1]): 9.0

SMILES: COc1ccc(CC2NCCc3c2[nH]c2ccccc32)cc1OC (centres unmarked) [Compound 6, LY-23728]
pKB (5-HT2B) (5-HT2B [3]): 9.17

SMILES: Cn1ccc2cc(NC(=O)Nc3cccnc3)ccc21 [Compound 7, SB-200646A]
pKi (5-HT2B) (5-HT2B [1]): 7.5

SMILES: Cc1c(C(=O)N2CCC(c3ncc[nH]3)CC2)n[nH]c1-c1ccc(Cl)cc1 [Compound 8]
Ki [4]: > 20000 nM
Ki (human 5-HT1B receptor): 2930 ± 321 nM
Ki (human serotonin 5-HT1AR): > 20000 nM
Ki (human 5-HT2B receptor): 0.3 ± 0.07 nM
5-HT2BR affinity range in words (human 5-HT2B receptor): subnanomolar
selectivity for 5-HT2BR versus 5-HT1BR (human 5-HT2B receptor; ratio of 5-HT1BR and 5-HT2BR affinity): ten thousand-fold
Ki [5]: > 20000 nM
Ki [6]: 13200 ± 1500 nM

SMILES: Cc1c(-c2ccccc2)sc(NC(=O)Cn2c(=O)cnc3ccccc32)c1C(=O)N1CCCCC1 [Compound 9]
Ki [4]: > 20000 nM
Ki (human 5-HT1B receptor): 2100 ± 622 nM
Ki (human serotonin 5-HT1AR): > 20000 nM
Ki (human 5-HT2B receptor): 235 ± 15.9 nM
5-HT2BR affinity range in words (human 5-HT2B receptor): submicromolar
Ki [5]: > 20000 nM
Ki [6]: 7500 ± 900 nM

inhibition at 10 µM (human 5-HT1B receptor): 7 ± 4%
Ki (human 5-HT2B receptor): 2610 ± 422 nM
5-HT2BR affinity range in words (human 5-HT2B receptor): low micromolar
SMILES: Cn1c(CN2CCCCC2)nnc1C1CCCN(CCc2ccccc2)C1 (centres unmarked) [Compound 10]

inhibition at 10 µM (human 5-HT1B receptor): 12 ± 4%
inhibition at 10 µM (human 5-HT2B receptor): 40 ± 3%
SMILES: Cc1cccc2[nH]c(C3CCN(C(=O)c4cnn[nH]4)CC3)nc12 [Compound 11]

inhibition at 10 µM (human 5-HT1B receptor): 7 ± 1%
inhibition at 10 µM (human 5-HT2B receptor): 36 ± 4%
SMILES: COc1cccc(-c2n[nH]cc2C(=O)N2CCCC(c3cc(O)ncn3)C2)c1 (centres unmarked) [Compound 12]

inhibition at 10 µM (human 5-HT1B receptor): 19 ± 3%
inhibition at 10 µM (human 5-HT2B receptor): 34 ± 4%
SMILES: Cc1ncc(C(=O)N2CCC(c3nccn3Cc3ccccc3)CC2)c(=O)[nH]1 [Compound 13]

inhibition at 10 µM (human 5-HT1B receptor): 26 ± 4%
inhibition at 10 µM (human 5-HT2B receptor): 34 ± 4%
SMILES: CCOC(=O)c1c(CN2CCCCC2)n(C)c2c1cc(OC(C)=O)c1c2c(-c2ccccc2)nn1-c1ccccc1 [Compound 14]

inhibition at 10 µM (human 5-HT1B receptor): 28 ± 3%
inhibition at 10 µM (human 5-HT2B receptor): 31 ± 4%
SMILES: COc1ccc2c(c1)NC1(CCN(C(=O)c3ccc(C)c(C)c3)CC1)c1cccn1-2 [Compound 15]

inhibition at 10 µM (human 5-HT1B receptor): 1 ± 1%
inhibition at 10 µM (human 5-HT2B receptor): 24 ± 4%
SMILES: CCc1ccc(NC(=O)c2ccc(-c3noc(C4CCN(C(=O)c5ccc(F)cc5)CC4)n3)cc2)cc1 [Compound 16]

SMILES: O=C(c1ccc(-c2ccccc2)cc1)N1CCC(c2nc3ccccc3[nH]2)CC1 [Compound 17]
IC50 (5-HT2B [2]; Figure 6, closest literature analogue, read-out: IC50 (5-HT2BR)): 2.4 nM

Kd (human 5-HT1B receptor; radioligand used at […], read-out: KD of radioligand at 5-HT1BR): 0.74 nM
SMILES: COc1ccc(NC(=O)c2ccc(-c3ccncc3)c(C)c2)cc1N1CCN(C)CC1 [[^3H]-GR125743, reference compound]
